Data as given in US20210137948A1, “TREATMENT OF INFECTIONS CAUSED BY NEISSERIA GONOCOCCUS USING A HALOGENATED SALICYLANILIDE” (priority 2018, published 2021).
Converted amounts (≈) assume the structure as drawn. Where two headings read alike, the source gives them in different places.

What was measured:
Escherichia coli [1] = settings: Escherichia coli MMX 102/ATCC 25922, range in parentheses; cited from earlier work
Pseudomonas aeruginosa [2] = settings: Pseudomonas aeruginosa MMX 103/ATCC 27853, range in parentheses; cited from earlier work
Escherichia coli [3] = assay: Broth microdilution MIC testing; format: cell-based; settings: for MIC: Escherichia coli, read-out: Minimal Inhibitory Concentration
Procedure: (§1) Broth microdilution assay: Mueller Hinton II broth (MHB II, BBL, BD, catalog no. 212322; lot no. 5257869) was used for testing most aerobes.
(§2) MIC values were determined using a broth microdilution procedure described by CLSI, see reference (1). Automated liquid handlers (Multidrop 384, Labsystems, Helsinki, Finland; Biomek 2000 and Biomek FX, Beckman Coulter, Fullerton Calif.) were used to conduct serial dilutions and liquid transfers.
(§3) The wells in Columns 2 through 12 of two standard 96-well microdilution plates (Costar 3795, Corning Inc., Corning, N.Y.) were filled with 150 μL of diluent specific to the compound tested. Three hundred microliters of each comparator and investigational drug solution (40× or 100×) was added to one well in Column 1 of the plates. The Biomek 2000 was used to complete the serial transfers through Column 11. The wells of Column 12 contained no drug and were the organism growth control wells. These panels were the “mother plates.”
(§4) Because drugs were prepared at either 40× or 100×, the “daughter plates” were loaded with 185-188 μL of the appropriate test media for the tested organism, using the Multidrop 384 or by hand. The daughter plates were prepared on the Biomek FX instrument, which transferred 2-5 μL of drug solution from each well of a mother plate to the corresponding well of each daughter plate in a single step. The wells of the daughter plates ultimately contained 185-188 μL of broth appropriate to the organism, 2-5 μL of drug solution, and 10 μL of bacterial inoculum prepared in broth.
(§5) Standardized inoculum of each organism was prepared per CLSI methods, see reference (1). The inoculum for each organism was dispensed into sterile reservoirs divided by length (Beckman Coulter), and the Biomek 2000 was used to inoculate the plates. Daughter plates were placed on the Biomek 2000 work surface in reverse orientation so that inoculation took place from low to high drug concentration. The Biomek 2000 delivered 10 μL of standardized inoculum into each well. This yielded a final cell density in the daughter plates of approximately 5×10^5 CFU/mL.
(§6) Plates were stacked 3 high, covered with a lid on the top plate, placed in plastic bags, and incubated at 35° C. for approximately 18 to 20 hr. Following incubation, the microplates were removed from the incubator and viewed from the bottom using a plate viewer. […] The MIC was read and recorded as the lowest concentration of drug that inhibited visible growth of the organism.

Klebsiella pneumoniae = assay: Broth microdilution MIC testing; format: cell-based; settings: Klebsiella pneumoniae MMX 214/ATCC 13883, susceptible; for MIC: ATCC13883, read-out: Minimal Inhibitory Concentration
Procedure: as §1, §2, §3, §4, §5, §6

Acinetobacter baumannii = assay: Broth microdilution MIC testing; format: cell-based; settings: Acinetobacter baumannii MMX 1630/ATCC 19606, susceptible; for MIC: ATCC19606, read-out: Minimal Inhibitory Concentration
Procedure: as §1, §2, §3, §4, §5, §6

Pseudomonas aeruginosa [4] = assay: Broth microdilution MIC testing; format: cell-based; settings: Pseudomonas aeruginosa MMX 103/ATCC 27853, susceptible, QC; for MIC: ATCC27853, read-out: Minimal Inhibitory Concentration
Procedure: as §1, §2, §3, §4, §5, §6

Enterobacter cloacae = assay: Broth microdilution MIC testing; format: cell-based; settings: Enterobacter cloacae MMX 6089, susceptible; for MIC: read-out: Minimal Inhibitory Concentration
Procedure: as §1, §2, §3, §4, §5, §6

[5] = tested on: Stenotrophomonas maltophila; assay: Broth microdilution MIC testing; format: cell-based; settings: Stenotrophomonas maltophila MMX 4746, susceptible; for MIC: Stenotrophomonas sp. LMG 10879, read-out: Minimal Inhibitory Concentration
Procedure: as §1, §2, §3, §4, §5, §6

[6] = tested on: N. gonorrhoeae ATCC49226/MMX 683; assay: Agar dilution MIC assay (Example 1); format: cell-based, Neisseria gonorrhoeae; settings: Neisseria gonorrhoeae MMX 683/ATCC 49226, QC
Procedure: Neisseria gonococcus (N. gonorrhoeae) were assayed using a reference agar dilution method, see reference (2). Drug dilutions and drug-supplemented agar plates were prepared manually. Neisseria gonococcus was grown on Chocolate agar in a CO2 incubator overnight at 35° C. prior to assay. […] The MIC was read per CLSI guidelines, see reference (3).

[7] = Escherichia coli MMX 102/ATCC 25922, QC strain

NCC[C@H](O)C(=O)N[C@@H]1C[C@H](N)[C@@H](O[C@H]2O[C@H](CN)[C@@H](O)[C@H](O)[C@H]2O)[C@H](O)[C@H]1O[C@H]1O[C@H](CO)[C@@H](O)[C@H](N)[C@H]1O [Amikacin]
CLSI QC range of MIC (Escherichia coli [1]): (0.5-4) μg/ml
CLSI QC range of MIC (Pseudomonas aeruginosa [2]): (1-4) μg/ml
MIC (Escherichia coli [3]; ATCC25922): 4 µg/mL (≈ 6.83 µM)
MIC (Escherichia coli [3]): 0.5 µg/mL (≈ 0.854 µM)
MIC (Klebsiella pneumoniae): 0.5 µg/mL (≈ 0.854 µM)
MIC (Acinetobacter baumannii): 16 µg/mL (≈ 27.3 µM)
MIC (Pseudomonas aeruginosa [4]): 2 µg/mL (≈ 3.42 µM)
MIC (Enterobacter cloacae): 1 µg/mL (≈ 1.71 µM)
MIC [5]: 2 µg/mL (≈ 3.42 µM)

CC(C)(O/N=C(\C(=O)N[C@@H]1C(=O)N2C(C(=O)[O-])=C(C[n+]3ccccc3)CS[C@H]12)c1csc(N)n1)C(=O)O [Ceftazidime]
CLSI QC range of MIC (Escherichia coli [1]): (0.06-0.5) μg/ml
CLSI QC range of MIC (Pseudomonas aeruginosa [2]): (1-4) μg/ml
MIC (Escherichia coli [3]; ATCC25922): 0.25 µg/mL (≈ 0.457 µM)
MIC (Escherichia coli [3]): 0.12 µg/mL (≈ 0.22 µM)
MIC (Klebsiella pneumoniae): 0.5 µg/mL (≈ 0.915 µM)
MIC (Acinetobacter baumannii): 4 µg/mL (≈ 7.32 µM)
MIC (Pseudomonas aeruginosa [4]): 1 µg/mL (≈ 1.83 µM)
MIC (Enterobacter cloacae): 8 µg/mL (≈ 14.6 µM)
MIC [5]: 4 µg/mL (≈ 7.32 µM)

CC1=C(C(=O)O)N2C(=O)[C@@H](NC(=O)[C@H](N)c3ccccc3)[C@H]2SC1 [Cephalexin]
MIC (Escherichia coli [3]; ATCC25922): 8 µg/mL (≈ 23 µM)
MIC (Escherichia coli [3]): 8 µg/mL (≈ 23 µM)
MIC (Klebsiella pneumoniae): 4 µg/mL (≈ 11.5 µM)
MIC (Acinetobacter baumannii): > 32 µg/mL
MIC (Pseudomonas aeruginosa [4]): > 32 µg/mL
MIC (Enterobacter cloacae): > 32 µg/mL
MIC [5]: > 32 µg/mL

O=C(O)c1cn(C2CC2)c2cc(N3CCNCC3)c(F)cc2c1=O [Ciprofloxacin]
MIC ([6]; ATCC49226, read-out: Minimal Inhibitory Concentration): 0.004 µg/mL (≈ 0.0121 µM)
Minimal Inhibitory Concentration [6]: 0.004 µg/mL

C[C@H]1c2cccc(O)c2C(=O)C2=C(O)[C@]3(O)C(=O)C(C(N)=O)=C(O)[C@@H](N(C)C)[C@@H]3[C@@H](O)[C@@H]21 [Doxycycline]
MIC (Escherichia coli [3]; ATCC25922): 0.5 µg/mL (≈ 1.13 µM)
MIC (Escherichia coli [3]): 0.25 µg/mL (≈ 0.563 µM)
MIC (Klebsiella pneumoniae): 1 µg/mL (≈ 2.25 µM)
MIC (Acinetobacter baumannii): 0.5 µg/mL (≈ 1.13 µM)
Minimal Inhibitory Concentration (Acinetobacter baumannii): 0.5 µg/mL
MIC (Pseudomonas aeruginosa [4]): > 8 µg/mL
MIC (Enterobacter cloacae): 1 µg/mL (≈ 2.25 µM)
Minimal Inhibitory Concentration [5]: 0.5 µg/mL
MIC [5]: 0.5 µg/mL (≈ 1.13 µM)

C[C@H]1COc2c(N3CCN(C)CC3)c(F)cc3c(=O)c(C(=O)O)cn1c23 [Levofloxacin]
Minimal Inhibitory Concentration (Escherichia coli [3]; [7]): 0.015 µg/mL
MIC (Escherichia coli [3]; ATCC25922): 0.015 µg/mL (≈ 0.0415 µM)
MIC (Klebsiella pneumoniae): 0.03 µg/mL (≈ 0.083 µM)
Minimal Inhibitory Concentration (Klebsiella pneumoniae): 0.03 µg/mL
MIC (Acinetobacter baumannii): 0.5 µg/mL (≈ 1.38 µM)
Minimal Inhibitory Concentration (Acinetobacter baumannii): 0.5 µg/mL
MIC (Pseudomonas aeruginosa [4]): 1 µg/mL (≈ 2.77 µM)
Minimal Inhibitory Concentration (Enterobacter cloacae): 0.03 µg/mL
MIC (Enterobacter cloacae): 0.03 µg/mL (≈ 0.083 µM)
Minimal Inhibitory Concentration [5]: 0.5 µg/mL
MIC [5]: 0.5 µg/mL (≈ 1.38 µM)

C[C@@H](O)[C@H]1C(=O)N2C(C(=O)O)=C(S[C@@H]3CN[C@H](C(=O)N(C)C)C3)[C@H](C)[C@H]12 [Meropenem]
CLSI QC range of MIC (Escherichia coli [1]): (0.008-0.06) μg/ml
CLSI QC range of MIC (Pseudomonas aeruginosa [2]): (0.12-1) μg/ml
Minimal Inhibitory Concentration (Escherichia coli [3]; [7]): 0.015 µg/mL
Minimal Inhibitory Concentration (Escherichia coli [3]; Escherichia coli MMX 120, acrAB efflux pump knockout): 0.015 µg/mL
MIC (Escherichia coli [3]; ATCC25922): 0.015 µg/mL (≈ 0.0391 µM)
MIC (Escherichia coli [3]): 0.015 µg/mL (≈ 0.0391 µM)
MIC (Klebsiella pneumoniae): 0.03 µg/mL (≈ 0.0782 µM)
Minimal Inhibitory Concentration (Klebsiella pneumoniae): 0.03 µg/mL
MIC (Acinetobacter baumannii): 1 µg/mL (≈ 2.61 µM)
MIC (Pseudomonas aeruginosa [4]): 0.25 µg/mL (≈ 0.652 µM)
Minimal Inhibitory Concentration (Pseudomonas aeruginosa [4]): 0.25 µg/mL
MIC (Enterobacter cloacae): 0.06 µg/mL (≈ 0.156 µM)
MIC [5]: 2 µg/mL (≈ 5.22 µM)
